Results on 21 compounds are retold here after PubChem BioAssay AID248 (DTP/NCI, 2004).

This assay concerns L1210 leukemia ip in BDF1 mice, survival T/C. Description: NCI In Vivo Anticancer Drug Screen. Data for tumor model L1210 Leukemia (intraperitoneal) in B6D2F1 (BDF1) mice. The note with it: endpoint: mean survival time, higher = longer survival. An outline of the steps: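 In this screen, tumor-bearing mice given compound are compared to those given vehicle, and their survival values are reported as a treated-to-control quotient.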

[1] abbreviates: dose: 100.0 mg/kg/injection, schedule: Q01DX001 (ip), vehicle: carboxymethylcellulose (CMC).
Setting [2] is: dose: 100.0 mg/kg/injection, schedule: Q01DX001 (ip), vehicle: saline.
Setting [3] is: dose: 200.0 mg/kg/injection, schedule: Q01DX001 (ip), vehicle: carboxymethylcellulose (CMC).
Setting [4] is: dose: 200.0 mg/kg/injection, schedule: Q01DX001 (ip), vehicle: saline.
Where [5] appears, read: dose: 400.0 mg/kg/injection, schedule: Q01DX001 (ip), vehicle: carboxymethylcellulose (CMC).
[6] abbreviates: dose: 400.0 mg/kg/injection, schedule: Q01DX001 (ip), vehicle: saline.
Where [7] appears, read: dose: 100.0 mg/kg/injection, schedule: Q04DX003 (ip), vehicle: saline with Tween-80.
[8] abbreviates: dose: 200.0 mg/kg/injection, schedule: Q04DX003 (ip), vehicle: saline with Tween-80.
[9] abbreviates: dose: 400.0 mg/kg/injection, schedule: Q04DX003 (ip), vehicle: saline with Tween-80.
The mark [10] stands for this setting: dose: 100.0 mg/kg/injection, schedule: Q04DX003 (ip), vehicle: Klucel (hydroxypropylcellulose) (HPC).
The mark [11] stands for this setting: dose: 200.0 mg/kg/injection, schedule: Q04DX003 (ip), vehicle: Klucel (hydroxypropylcellulose) (HPC).
The mark [12] stands for this setting: dose: 400.0 mg/kg/injection, schedule: Q04DX003 (ip), vehicle: Klucel (hydroxypropylcellulose) (HPC).
The mark [13] stands for this setting: dose: 100.0 mg/kg/injection, schedule: Q01DX001 (ip), vehicle: Klucel (hydroxypropylcellulose) (HPC).
The mark [14] stands for this setting: dose: 200.0 mg/kg/injection, schedule: Q01DX001 (ip), vehicle: Klucel (hydroxypropylcellulose) (HPC).
Setting [15] is: dose: 400.0 mg/kg/injection, schedule: Q01DX001 (ip), vehicle: Klucel (hydroxypropylcellulose) (HPC).
Setting [16] is: dose: 50.0 mg/kg/injection, schedule: Q01DX001 (ip), vehicle: carboxymethylcellulose (CMC).

Molecules are shown by their SMILES. “And” between values parts separate entries of the source, which are not always exact repeats. Identical values can stand only once. Inconclusive results and toxic doses are left out.

For `NC(CO)C(=O)O` (configuration not stated), the T/C was 95 % of control under setting [1]; 91 % of control and 104 % of control under setting [2]; 101 % of control under setting [3]; 92 % of control and 101 % of control under setting [4]; 103 % of control under setting [5]; 105 % of control and 95 % of control under setting [6].
`O=C1OC(c2ccc(Cl)cc2)=N/C1=C\c1ccccc1`: the T/C under setting [7] was 100 % of control, the T/C under setting [8] is 90 % of control and the T/C under setting [9] is 91 % of control.
For `Cc1ccc(-c2ccc(C)cc2)cc1`, the T/C by setting is: under setting [10], 98 % of control; under setting [11], 95 % of control; under setting [12], 98 % of control.
Regarding `CCn1nnnc1-c1ccc(Cl)cc1`, the T/C under setting [7] is 98 % of control, the T/C under setting [8] was 98 % of control and the T/C under setting [9] is 98 % of control.
On to `OCC1OC(n2cnc3c(NCCCCNc4ncnc5c4ncn5C4OC(CO)C(O)C4O)ncnc32)C(O)C1O` (configuration not stated), for which the T/C was 100 % of control (dose: 100.0 mg/kg/injection, schedule: Q01DX005 (ip), vehicle: saline) and 108 % of control (dose: 200.0 mg/kg/injection, schedule: Q01DX005 (ip), vehicle: saline).
Turning to `Cc1ccc(C2=C(c3ccc(C)cc3)CS(=O)(=O)C2)cc1`, the T/C reads like this: (dose: 100.0 mg/kg/injection, schedule: Q01DX001 (ip), vehicle: saline with Tween-80) 95 % of control; (dose: 200.0 mg/kg/injection, schedule: Q01DX001 (ip), vehicle: saline with Tween-80) 168 % of control; (dose: 400.0 mg/kg/injection, schedule: Q01DX001 (ip), vehicle: saline with Tween-80) 244 % of control.
As to `CCOC(=O)CCc1cc(C)[nH]c1C(=O)OCC`, the T/C runs as follows: under setting [13], 93 % of control; under setting [10], 101 % of control; under setting [14], 93 % of control; under setting [11], 96 % of control; under setting [15], 101 % of control; under setting [12], 98 % of control.
Turning to `CNC(N)=S`, the T/C (dose: 100.0 mg/kg/injection, schedule: Q04DX003 (ip), vehicle: saline) was 99 % of control; the T/C (dose: 200.0 mg/kg/injection, schedule: Q04DX003 (ip), vehicle: saline) is 94 % of control; the T/C (dose: 400.0 mg/kg/injection, schedule: Q04DX003 (ip), vehicle: saline) was 97 % of control.
With `CSc1ccc(OC(=O)Nc2cccc(Cl)c2)cc1`, the T/C (dose: 100.0 mg/kg/injection, schedule: Q04DX002 (ip), vehicle: saline with Tween-80) is 100 % of control; the T/C (dose: 200.0 mg/kg/injection, schedule: Q04DX002 (ip), vehicle: saline with Tween-80) is 93 % of control; the T/C (dose: 400.0 mg/kg/injection, schedule: Q04DX002 (ip), vehicle: saline with Tween-80) was 104 % of control.
`O=C(OC1COC(OC(=O)c2ccccc2)C(OC(=O)c2ccccc2)C1OC(=O)c1ccccc1)c1ccccc1` (configuration not stated): the T/C was 96 % of control under setting [16]; 102 % of control under setting [13]; 92 % of control (dose: 100.0 mg/kg/injection, schedule: Q01DX001 (ip), vehicle: acetone); 102 % of control and 103 % of control under setting [1]; 90 % of control under setting [2]; 102 % of control under setting [14]. Besides, the T/C was 88 % of control (dose: 200.0 mg/kg/injection, schedule: Q01DX001 (ip), vehicle: acetone); 94 % of control and 91 % of control under setting [3]; 109 % of control under setting [15]; 90 % of control (dose: 400.0 mg/kg/injection, schedule: Q01DX001 (ip), vehicle: acetone); 94 % of control under setting [5]; 95 % of control under setting [6].
Regarding `CNC(=S)N/N=C/CCC/C=N/NC(=S)NC`, the T/C is, setting by setting: under setting [16], 96 % of control; under setting [1], 100 % of control; under setting [3], 98 % of control.
In the case of `CNS(=O)(=O)c1ccccc1C(C)(O)c1ccccc1` (configuration not stated), the T/C is 97 % of control under setting [2], 103 % of control under setting [4] and 97 % of control under setting [6].
With `c1ccc(-n2ncn[n+]2-c2ccccc2)cc1`, the T/C is 98 % of control (dose: 10.0 mg/kg/injection, schedule: Q01DX001 (ip), vehicle: saline); 90 % of control (dose: 20.0 mg/kg/injection, schedule: Q01DX001 (ip), vehicle: saline); 95 % of control (dose: 40.0 mg/kg/injection, schedule: Q01DX001 (ip), vehicle: saline); 109 % of control (dose: 80.0 mg/kg/injection, schedule: Q01DX001 (ip), vehicle: saline).
Regarding `CC(=O)CC(O)(C(F)(F)F)C(F)(F)F`, the T/C runs as follows: (dose: 100.0 mg/kg/injection, schedule: Q01DX009 (ip), vehicle: saline) 105 % of control; (dose: 200.0 mg/kg/injection, schedule: Q01DX009 (ip), vehicle: saline) 101 % of control; (dose: 400.0 mg/kg/injection, schedule: Q01DX009 (ip), vehicle: saline) 93 % of control.
As for `COc1ccc(-n2c(=O)c(N=Nc3ccccc3C)c(O)n(-c3ccc(Cl)cc3)c2=S)cc1`, the T/C (dose: 50.0 mg/kg/injection, schedule: Q01DX001 (ip), vehicle: Klucel (hydroxypropylcellulose) (HPC)) was 100 % of control; the T/C under setting [13] is 100 % of control; the T/C under setting [14] is 102 % of control.
On to `Cc1ccc(N2C(=O)c3cc4ccccc4c(-c4ccccn4)c3C2=O)cc1`, for which the T/C (dose: 12.5 mg/kg/injection, schedule: Q04DX003 (ip), vehicle: Klucel (hydroxypropylcellulose) (HPC)) was 103 % of control; the T/C (dose: 25.0 mg/kg/injection, schedule: Q04DX003 (ip), vehicle: Klucel (hydroxypropylcellulose) (HPC)) was 103 % of control; the T/C (dose: 50.0 mg/kg/injection, schedule: Q04DX003 (ip), vehicle: Klucel (hydroxypropylcellulose) (HPC)) is 103 % of control; the T/C under setting [10] is 94 % of control.
With `Nc1nc2[nH]cnc(=S)c2[nH]1`, where the note is “dose: 75.0 mg/kg/injection, schedule: Q01DX001 (ip), vehicle: saline”, the T/C was 101 % of control.
For the compound `O=C(/C=N/O)Nc1ccccc1`, the T/C (dose: 100.0 mg/kg/injection, schedule: Q01DX009 (ip), vehicle: saline with Tween-80) was 101 % of control; the T/C (dose: 200.0 mg/kg/injection, schedule: Q01DX009 (ip), vehicle: saline with Tween-80) was 101 % of control; the T/C (dose: 400.0 mg/kg/injection, schedule: Q01DX009 (ip), vehicle: saline with Tween-80) was 98 % of control.
Consider `C[N+](C)(C)CC(O)CC#N` (configuration not stated), for which the T/C by setting is: (dose: 12.5 mg/kg/injection, schedule: Q01DX009 (ip), vehicle: Klucel (hydroxypropylcellulose) (HPC)) 98 % of control; (dose: 25.0 mg/kg/injection, schedule: Q01DX009 (ip), vehicle: Klucel (hydroxypropylcellulose) (HPC)) 96 % of control; (dose: 50.0 mg/kg/injection, schedule: Q01DX009 (ip), vehicle: Klucel (hydroxypropylcellulose) (HPC)) 93 % of control.
As for `CCOC(=O)C(C)(C)CN(CC(C)(C)C(=O)OCC)c1ccccc1`, the T/C was 106 % of control under setting [7], 106 % of control under setting [8] and 104 % of control under setting [9].
`C#CC(OC(=O)c1cc([N+](=O)[O-])cc([N+](=O)[O-])c1)C1OC(C)(C)OC1C1COC(C)(C)O1` (configuration not stated): the T/C runs as follows: under setting [1], 106 % of control; under setting [3], 106 % of control; under setting [5], 106 % of control.
